Results reported in patent US9896418B2, “Aryl ethers and uses thereof” (Peloton Therapeutics, Inc., priority 2013, dated 2018).

Test system: HIF-2α HIS TAG-PASB Domain
Assay: HIF-2α Scintillation Proximity Assay (SPA)
Type: binding
Protocol: The percent inhibition was determined and IC50 values were calculated using the Dotmatics system based on the following equation: % inhibition=[(high control−sample)/(high control−low control)]×100.

| Structure (SMILES) | IC50 [nM] |
| --- | --- |
| N#Cc1cc(F)cc(Oc2ccc(Br)c3c2C(F)(F)C(F)(F)C3)c1 [Compound 248, 3-((7-Bromo-2,2,3,3-tetrafluoro-2,3-dihydro-1H-inden-4-yl)oxy)-5-fluorobenzonitrile] | 17000 |
| CS(=O)(=O)c1ccc(Oc2cc(C#N)cc(C(F)F)c2)c2c1C(O)CC2 (centres unmarked) [Compound 249, 3-(Difluoromethyl)-5-((1-hydroxy-7-(methylsulfonyl)-2,3-dihydro-1H-inden-4-yl)oxy)benzonitrile] | 880 |
| N#Cc1cc(F)cc(Oc2ccc(S(=O)(=O)CCO)c3c2CC(F)(F)C3O)c1 (centres unmarked) [Compound 250, 3-((2,2-Difluoro-1-hydroxy-7-((2-hydroxyethyl)sulfonyl)-2,3-dihydro-1H-inden-4-yl)oxy)-5-fluorobenzonitrile] | 1300 |
| N#Cc1cncc(Oc2ccc(S(N)(=O)=O)c3c2CC(F)(F)[C@H]3O)c1 [Compound 253, (S)-7-((5-Cyanopyridin-3-yl)oxy)-2,2-difluoro-3-hydroxy-2,3-dihydro-1H-indene-4-sulfonamide] | 18000 |
| NS(=O)(=O)c1ccc(Oc2cc(F)cc(F)c2)c2c1C(O)CC2 (centres unmarked) [Compound 257, 7-(3,5-Difluorophenoxy)-3-hydroxy-2,3-dihydro-1H-indene-4-sulfonamide] | 1900 |
| N#Cc1cc(F)cc(Oc2ccc(S(=N)(=O)C(F)(F)F)c3c2CCC3O)c1 (stereo not drawn) [Compound 258, 3-Fluoro-5-((1-hydroxy-7-(S-(trifluoromethyl)sulfonimidoyl)-2,3-dihydro-1H-inden-4-yl)oxy)benzonitrile] | 410 |
| O=S(=O)(c1ccc(Oc2cc(F)c(F)c3[nH]ncc23)c2c1C(O)C(F)(F)C2)C(F)(F)F (centres unmarked) [Compound 261, 4-((6,7-Difluoro-1H-indazol-4-yl)oxy)-2,2-difluoro-7-((trifluoromethyl)sulfonyl)-2,3-dihydro-1H-inden-1-ol] | 640 |
| O=S(=O)(c1ccc(Oc2cc(F)cc3[nH]ncc23)c2c1C(O)C(F)(F)C2)C(F)(F)F (centres unmarked) [Compound 262, 2,2-Difluoro-4-((6-fluoro-1H-indazol-4-yl)oxy)-7-((trifluoromethyl)sulfonyl)-2,3-dihydro-1H-inden-1-ol] | 4900 |
| O=S(=O)(c1ccc(Oc2cccc3[nH]ncc23)c2c1[C@H](O)C(F)(F)C2)C(F)(F)F [Compound 263, (S)-4-((1H-Indazol-4-yl)oxy)-2,2-difluoro-7-((trifluoromethyl)sulfonyl)-2,3-dihydro-1H-inden-1-ol] | 25 |
| O=S(=O)(c1ccc(Oc2c(F)ccc3[nH]ncc23)c2c1[C@H](O)C(F)(F)C2)C(F)(F)F [Compound 264, (S)-2,2-Difluoro-4-((5-fluoro-1H-indazol-4-yl)oxy)-7-((trifluoromethyl)sulfonyl)-2,3-dihydro-1H-inden-1-ol] | 380 |
| N#Cc1cc(F)cc(Oc2ccc(S(=O)(=O)C(F)(F)F)c3c2CC(F)C3N)c1 (centres unmarked) [Compound 268, 3-((1-amino-2-fluoro-7-((trifluoromethyl)sulfonyl)-2,3-dihydro-1H-inden-4-yl)oxy)-5-fluorobenzonitrile] | 3500 |
| CS(=O)(=O)c1ccc(Oc2cc(F)cc(C#N)c2)c2c1C(=O)C(F)(Cl)C2 (centres unmarked) [Compound 269, 3-((2-chloro-2-fluoro-7-(methylsulfonyl)-1-oxo-2,3-dihydro-1H-inden-4-yl)oxy)-5-fluorobenzonitrile] | 310 |
| C[S+]([O-])c1ccc(Oc2cc(F)cc(C#N)c2)c2c1[C@H](O)C(F)(F)C2 (stereo partly drawn) [Compound 272, 3-[(1S)-2,2-Difluoro-1-hydroxy-7-methylsulfinyl-indan-4-yl]oxy-5-fluoro-benzonitrile] | 2000 |
| C=C1CC(O)c2c(S(C)(=O)=O)ccc(Oc3cc(F)cc(Cl)c3)c21 (centres unmarked) [Compound 280, 4-(3-chloro-5-fluorophenoxy)-3-methylene-7-(methylsulfonyl)-2,3-dihydro-1H-inden-1-ol] | 3400 |
| N#CN=S(=O)(CF)c1ccc(Oc2cc(F)cc(C#N)c2)c2c1[C@H](O)CC2 (stereo partly drawn) [Compound 282, N—(((R)-7-(3-cyano-5-fluorophenoxy)-3-hydroxy-2,3-dihydro-1H-inden-4-yl)(fluoromethyl)(oxo)-λ^6-sulfanylidene)cyanamide] | 7200 |
| N#CN=S(=O)(CF)c1ccc(Oc2cc(F)cc(C#N)c2)c2c1[C@H](O)CC2 (stereo partly drawn) [Compound 283, N—(((R)-7-(3-cyano-5-fluorophenoxy)-3-hydroxy-2,3-dihydro-1H-inden-4-yl)(fluoromethyl)(oxo)-λ^6-sulfanylidene)cyanamide] | 1400 |
| CS(=O)(=O)N=S(=O)(CF)c1ccc(Oc2cc(F)cc(C#N)c2)c2c1[C@H](O)C(F)(F)C2 (stereo partly drawn) [Compound 284, N—(((S)-7-(3-cyano-5-fluorophenoxy)-2,2-difluoro-3-hydroxy-2,3-dihydro-1H-inden-4-yl)(fluoromethyl)(oxo)-λ^6-sulfanylidene)methanesulfonamide] | 5600 |
| N#Cc1cc(F)cc(Oc2ccc(S(=O)(=O)C(F)(F)F)c3c2CC(F)(F)[C@H]3NCCO)c1 [Compound 291, 3-[(1S)-2,2-difluoro-1-(2-hydroxyethylamino)-7-(trifluoromethylsulfonyl)indan-4-yl]oxy-5-fluoro-benzonitrile] | 4900 |
| CS(=O)(=O)c1ccc(Oc2cc(F)cc(C#N)c2)c2c1[C@H](O)C(F)(F)[C@H]2F [Compound 293, 3-fluoro-5-[(1S,3S)-2,2,3-trifluoro-1-hydroxy-7-methylsulfonyl-indan-4-yl]oxy-benzonitrile] | 720 |
| CS(=O)(=O)c1ccc(Oc2cc(F)cc(C#N)c2)c2c1[C@H](O)C[C@@H]2F [Compound 295, 3-fluoro-5-[(1R,3S)-3-fluoro-1-hydroxy-7-methylsulfonyl-indan-4-yl]oxy-benzonitrile] | 230 |
| CS(=O)(=O)c1ccc(Oc2cc(F)cc(C#N)c2)c2c1[C@H](O)[C@H](F)[C@@H]2O [Compound 296, 3-fluoro-5-[(1S,2R,3R)-2-fluoro-1,3-dihydroxy-7-methylsulfonyl-indan-4-yl]oxy-benzonitrile] | 1300 |
| N#CN=S(=O)(c1ccc(Oc2cc(F)cc(C#N)c2)c2c1[C@H](O)[C@H](F)C2)C(F)F (stereo partly drawn) [Compound 297, N-(((2R,3S)-7-(3-cyano-5-fluorophenoxy)-2-fluoro-3-hydroxy-2,3-dihydro-1H-inden-4-yl)(difluoromethyl)(oxo)-λ^6-sulfanylidene)cyanamide] | 12400 |
| C[C@]1(F)Cc2c(Oc3cc(F)cc(C#N)c3)ccc(S(C)(=O)=O)c2[C@@H]1O [Compound 298, 3-fluoro-5-(((1S,2S)-2-fluoro-1-hydroxy-2-methyl-7-(methylsulfonyl)-2,3-dihydro-1H-inden-4-yl)oxy)benzonitrile] | 16100 |
| N#CN=S(=O)(c1ccc(Oc2cc(F)cc(C#N)c2)c2c1[C@H](O)[C@H](F)C2)C(F)F (stereo partly drawn) [Compound 299, N-(((2R,3S)-7-(3-cyano-5-fluorophenoxy)-2-fluoro-3-hydroxy-2,3-dihydro-1H-inden-4-yl)(difluoromethyl)(oxo)-λ^6-sulfanylidene)cyanamide] | 16100 |
| C[C@@]1(F)Cc2c(Oc3cc(F)cc(C#N)c3)ccc(S(C)(=O)=O)c2[C@@H]1O [Compound 300] | 2030 |
| C[C@@H]1Cc2c(Oc3cc(F)cc(C#N)c3)ccc(S(C)(=O)=O)c2[C@@H]1O [Compound 301, 3-fluoro-5-(((1R,2R)-1-hydroxy-2-methyl-7-(methylsulfonyl)-2,3-dihydro-1H-inden-4-yl)oxy)benzonitrile] | 1900 |
